Test results published in PubChem BioAssay AID743030 (The Scripps Research Institute Molecular Screening Center, 2013).

Tests used:
Assay in all cases: plasma and brain homogenate binding extent – biochemical, LC-MS, human, mouse, rat plasma, rat brain, ADME assay for V1a-R antagonist project, late-stage follow-up (AID 743030)
Settings in all cases: equilibrium dialysis, 16 h, at 2.5 µM
Rat brain tissue = tested on: Rat brain tissue
Rat plasma proteins = tested on: Rat plasma proteins
Human plasma proteins = tested on: Human plasma proteins
Mouse plasma proteins = tested on: Mouse plasma proteins

fraction bound (Rat brain tissue): > 99.5%
fraction bound (Rat plasma proteins): 99.5%
fraction bound (Human plasma proteins): 99.4%
fraction bound (Mouse plasma proteins): 97.7%
SMILES: O=C(C1CCN(c2ccc(Cl)cn2)CC1)N(CC1CC1)c1ccc(Cl)cc1
